The record followed here is patent US20040092402A1, “Pyrimidine derivatives and herbicides containing the same” (priority 2000, published 2004).

“And” between values parts separate entries of the source, which are not always exact repeats. Identical values can stand only once.

In general, melting point refers to the temperature of the solid-liquid transition. As for `CCS(=O)(=O)Nc1cc(-c2ncnc(OC)c2Cl)c(F)cc1C#N` [H-7, 5-Chloro-4-[4-cyano-5-(ethylsulfonylamino)-2-fluorophenyl]-6-methoxypyrimidine], the melting point lay in the range of 149 to 150 °C.

Consider `CCS(=O)(=O)Nc1cc(-c2ncnc(C(F)F)c2Cl)c(F)cc1C#N` [D-26, 5-Chloro-4-[4-cyano-5-(ethylsulfonylamino)-2-fluoro-phenyl]-6-difluoromethylpyrimidine], for which the melting point lay in the range of 200 to 202 °C.

For `CCS(=O)(=O)Nc1cc(-c2ncnc(C)c2Cl)c(F)cc1C#N` [E-10, 5-Chloro-4-[4-cyano-5-(ethylsulfonylamino)-2-fluoro-phenyl]-6-methylpyrimidine], the melting point lay within 182 to 184 °C.

Turning to `C#CCSc1cc(-c2ncnc(C(F)F)c2Cl)c(F)cc1Cl` [D-48, 5-Chloro-4-(4-chloro-2-fluoro-5-propargylthio-phenyl)-6-difluoromethylpyrimidine], the melting point was in the range of 95 to 97 °C.

On to `CCS(=O)(=O)Nc1cc(-c2ncnc(NOC)c2Cl)c(F)cc1C#N` [H-27, 5-Chloro-4-[4-cyano-5-(ethylsulfonylamino)-2-fluoro-phenyl]-6-methoxyaminopyrimidine], for which the melting point was in the range of 188 to 189 °C.

Consider `CCS(=O)(=O)Nc1cc(-c2ncnc(C(C)C)c2Cl)c(F)cc1C#N` [E-13, 5-Chloro-4-[4-cyano-5-(ethylsulfonylamino)-2-fluoro-phenyl]-6-isopropylpyrimidine], for which the melting point fell in the range of 160 to 162 °C.

The compound `COC(=O)c1cc(-c2ncnc(C)c2C#N)c(F)cc1Cl` [K-19, Methyl 2-chloro-5-(5-cyano-6-methylpyrimidin-4-yl)-4-fluorobenzoate] had a melting point of 142 to 144 °C.

Take `Cc1ncnc(-c2ccc(Cl)cc2F)c1Cl` [E-1, 4-(4-Chloro-2-fluorophenyl)-5-chloro-6-methyl-pyrimidine]: the melting point lay within 77 to 79 °C.

As to `COC1(F)C=C(Cl)C=CC1c1ncnc(C)c1C` (stereo not shown) [J-1, 4-(4-Chloro-2-fluoro-2-methoxyphenyl)-5,6-dimethyl-pyrimidine], the melting point fell in the range of 156 to 157 °C.

Compound `CCS(=O)(=O)Nc1cc(-c2ncnc(Cl)c2Cl)c(F)cc1C#N` [H-16, 4,5-Dichloro-6-[4-cyano-5-(ethylsulfonylamino)-2-fluorophenyl]pyrimidine] had a melting point of 149 to 150 °C.

In turn, `CC(=O)Nc1cc(-c2ncnc(C(F)F)c2Cl)c(F)cc1C#N` [D-21, 4-(5-Acetylamino-4-cyano-2-fluorophenyl)-5-chloro-6-difluoromethylpyrimidine] returned a melting point of 160 to 162 °C.

As for `C=CCOc1cc(-c2ncnc(C(F)F)c2Cl)c(F)cc1Cl` [D-2, 4-(5-Allyloxy-4-chloro-2-fluorophenyl)-5-chloro-6-difluoromethylpyrimidine], the melting point was 69 to 71 °C and 67 to 71 °C.

Turning to `CCS(=O)(=O)Nc1cc(-c2ncnc(OC)c2C#N)c(F)cc1C#N` [K-3, 4-(4-Cyano-5-ethylsulfonylamino-2-fluorophenyl)-5-cyano-6-methoxypyrimidine], the melting point fell in the range of 187 to 189 °C.

With `C#CCOc1cc(-c2ncnc(C(F)(F)F)c2Cl)c(F)cc1Cl` [A-3, 5-Chloro-4-(4-chloro-2-fluoro-5-propargyloxyphenyl)-6-trifluoromethylpyrimidine], the melting point lay in the range of 112 to 113 °C.

`CCS(=O)(=O)N(C(C)=O)c1cc(-c2ncnc(C(F)(F)F)c2Cl)c(F)cc1C#N` [A-23, 4-[5-(N-acetyl-N-ethanesulfonylamino)-4-cyano-2-fluorophenyl]-5-chloro-6-trifluoromethylpyrimidine] yielded a melting point of 144 to 146 °C.

As for `CCS(=O)(=O)Nc1cc(-c2ncnc(C(F)F)c2Cl)c(Cl)cc1Cl` [D-16, 5-Chloro-4-(2,4-dichloro-5-ethylsulfonylaminophenyl)-6-difluoromethylpyrimidine], the melting point was 140 to 142 °C.

`CCS(=O)(=O)N(C(C)=O)c1cc(-c2ncnc(C(F)F)c2Cl)c(F)cc1C#N` [D-27, 4-[5-(N-acetyl-N-ethylsulfonylamino)-4-cyano-2-fluorophenyl]-5-chloro-6-difluoromethylpyrimidine] displayed a melting point of 121 to 122 °C.

Compound `COc1cc(-c2ncnc(C(F)(F)F)c2C)c(F)cc1Cl` [J-5, 4-(4-Chloro-2-fluoro-5-methoxyphenyl)-5-methyl-6-trifluoromethylpyrimidine] returned a melting point of 144 to 146 °C.

As to `COC(=O)c1cc(-c2ncnc(C(F)F)c2Cl)c(F)cc1Cl` [D-41, 2-Chloro-4-fluoro-5-(5-chloro-6-difluoromethyl-pyrimidin-4-yl)benzoic acid methyl ester], the melting point lay in the range of 100 to 101 °C.

Take `Fc1cc(Cl)c(OC(F)F)cc1-c1ncnc(C(F)F)c1Cl` [D-7, 5-Chloro-4-[4-chloro-2-fluoro-5-(difluoromethoxy)phenyl]-6-difluoromethylpyrimidine]: the melting point lay within 56 to 57 °C.

Take `COc1cc(-c2ncnc(C(F)(F)F)c2Cl)c(F)cc1Cl` [A-1, 5-chloro-4-(4-chloro-2-fluoro-5-methoxyphenyl)-6-trifluoromethylpyrimidine]: the melting point is 112 to 113 °C and 109 to 111 °C.

`COc1ncnc(-c2cc(NS(C)(=O)=O)c(C#N)cc2F)c1C` [J-16, 4-(4-cyano-5-methylsulfonylamino-2-fluorophenyl)-6-methoxy-5-methylpyrimidine] yielded a melting point of 218 to 220 °C.

In the case of `CCS(=O)(=O)Nc1cc(-c2ncnc(C(F)(F)F)c2Cl)c(F)cc1C#N` [A-16, 5-chloro-4-[4-cyano-5-(N-ethanesulfonylamino)-2-fluorophenyl]-6-trifluoromethylpyrimidine], the melting point was 188 to 189 °C and 191 to 194 °C.

Turning to `COc1cc(-c2ncnc(OC)c2C=O)c(F)cc1Cl` [L-1, 4-(4-Chloro-2-fluoro-5-methoxyphenyl)-5-formyl-6-methoxypyrimidine], the melting point was 161 to 163 °C.

Take `CCS(=O)(=O)N(C(C)=O)c1cc(-c2ncnc(C(F)F)c2Cl)c(F)cc1C#N` [J-14, 4-[5-(N-acetyl-N-ethylsulfonylamino)-4-cyano-2-fluorophenyl]-5-chloro-6-difluoromethylpyrimidine]: the melting point lay within 123 to 124 °C.

In turn, `CCS(=O)(=O)Nc1cc(-c2ncnc(C(F)F)c2Cl)c(F)cc1Cl` [D-14, 5-Chloro-4-(4-chloro-5-ethylsulfonylamino-2-fluoro-phenyl)-6-difluoromethylpyrimidine] displayed a melting point of 138 to 139 °C.

Compound `COc1cc(-c2ncnc(OC)c2Cl)c(F)cc1Cl` [H-1, 5-Chloro-4-(4-chloro-2-fluoro-5-methoxyphenyl)-6-methoxypyrimidine] had a melting point of 142 to 143 °C.

For `C#CCOc1cc(-c2ncnc(C)c2C)c(F)cc1Cl` [J-3, 4-(4-Chloro-2-fluoro-5-propargyloxyphenyl)-5,6-dimethyl pyrimidine], the melting point was 131 to 133 °C.

The compound `C#CCOc1cc(-c2ncnc(C(Cl)Cl)c2Cl)c(F)cc1Cl` [E-19, 5-Chloro-4-(4-chloro-2-fluoro-5-propargyloxyphenyl)-6-dichloromethylpyrimidine] yielded a melting point of 86 to 88 °C.

In turn, `CC(C)NS(=O)(=O)c1cc(-c2ncnc(C(F)F)c2Cl)c(F)cc1Cl` [D-50, 2-Chloro-5-(5-chloro-6-difluoromethylpyrimidin-4-yl)-4-fluoro-N-isopropylbenzenesulfonamide] yielded a melting point of 172 to 175 °C.

`CCS(=O)(=O)Nc1cc(C2(NC)NC=NC=C2Cl)c(F)cc1C#N` (stereo not shown) [H-20, 5-Chloro-6-[4-cyano-5-(ethylsulfonylamino)-2-fluoro-phenyl]-6-methylaminopyrimidine] returned a melting point of 211 to 212 °C.

For the compound `C#CCOc1cc(-c2ncnc(C(F)(F)F)c2C)c(F)cc1Cl` [J-7, 4-(4-Chloro-2-fluoro-5-propargyloxyphenyl)-5-methyl-6-trifluoromethylpyrimidine], the melting point was 90 to 92 °C.

`COc1cc(-c2ncnc(OC)c2C#N)c(F)cc1Cl` [K-1, 4-(4-Chloro-2-fluoro-5-methoxyphenyl)-5-cyano-6-methoxypyrimidine] displayed a melting point of 183 to 185 °C.

In turn, `COc1ncnc(-c2cc(NS(C)(=O)=O)c(Cl)cc2Cl)c1C#N` [K-20, 4-(2,4-Dichloro-5-methylsulfonylaminophenyl)-5-cyano-6-methoxypyrimidine] showed a melting point of 160 to 162 °C.
